Measured values: patent US7691874B2, “Neuroprotective properties of dextrorotatory morphinans” (priority 2004, dated 2010)
Marks after values point to notes of the source that are not given here.

Experiments:
MA-treated mice [1] = test: Methamphetamine (MA)-induced hyperthermia; type: in vivo; conditions: 24 mg/kg; MA 7.5 mg/kg i.p. x 4 at 2-h intervals
Procedure: Rectal temperature was recorded at 40 min after each MA treatment. […] Mice were sacrificed at 3 days after final MA injection.
FIGS. 10A-10B show effect of morphinans on the methamphetamine (MA)-induced hyperthermia. Mice received i.p. injections of MA (four injections of 7.5 mg/kg each) at 2-h intervals under the ambient temperature of 22.0±0.5° C. Temperatures were recorded at 40 min after each MA treatment (Arrow=MA injection).

MA-treated mice [2] = test: MA model, HM versus L-dopa/carbidopa: nigral TH-IR; conditions: mouse, in vivo
Source text: FIGS. 33A-33G show effects of carbidopa, L-dopa, carbidopa plus L-dopa, and HM on the nigral tyrosine hydroxylase-like immunoreactivity (TH-IR) of the mice treated with MA. […] Magnification=40×.

MPTP-treated mice [3] = test: MPTP-induced loss of nigral TH-IR with CB1 agonist/antagonist and HM; type: in vivo; conditions: given alone: AM-251 0.3, ACEA 2, HM 20 mg/kg i.p.; MPTP 20 mg/kg i.p./day x 7
Procedure: CB1 agonist or antagonist was administered 45 min before every MPTP, while HM was injected 30 min before every MPTP (20 mg/kg, i.p./day×7). Compounds were administered for 7 days post-final MPTP.

C57 BL/6 mice = test: Conditioned place preference (psychological dependence) following repeated administration of morphinans or PCP; type: in vivo; conditions: 20 or 40 mg/kg i.p. (PCP 2.5 or 5 mg/kg); vs saline
Procedure: On day 14, the guillotine doors were raised. […] Data were analyzed between 0900 and 1700 hr.

cocaine-treated mice [4] = test: Cocaine-induced hyperlocomotion; type: in vivo
Outline: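 Morphinans (15 and 30 mg/kg, i.p.) or dimemorfan (20 mg/kg, i.p.) given 30 minutes before cocaine (5 and 20 mg/kg, i.p.); treatments continued for 7 days. Locomotion scored as central activity (non-specific movement in box center) and marginal activity (circling).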

MPTP-treated mice [5] = test: Hypokinesia (reduction in locomotor activity) induced by MPTP; type: in vivo; conditions: 12 or 24 mg/kg i.p. 30 min before MPTP (20 mg/kg/day x 7), last three days
LPS-treated mice [6] = test: LPS model, HM versus L-dopa/carbidopa: microglia F4/80-like immunoreactivity; type: in vivo; conditions: substantia nigra
LPS-treated mice [7] = test: Striatal dopamine and metabolites in LPS-treated mice; type: in vivo; conditions: for Concentration DA in the striatum: 3 weeks after LPS
Source text: (§1) Control animals received striatal injection with PBS.
Mice were sacrificed at 3 weeks after LPS treatment.

LPS-treated mice [8] = test: LPS model, HM versus L-dopa/carbidopa: nigral TH-IR; conditions: mouse, in vivo
Source text: FIG. 27 show effects of carbidopa, L-dopa, carbidopa+L-dopa and HM on the nigral tyrosine hydroxylase-like immunoreactivity (TH-IR) of the mice treated with LPS.

[9] = system: NMDA receptor associated PCP sites; conditions: cited from earlier work
cocaine-treated mice [10] = test: Cocaine-induced conditioned place preference with CB1 modulation
Procedure: The control mice received an i.p. injection of saline just before entering the white or black compartment. Cocaine or MA dissolved in saline was administered immediately before the mice were placed in the white compartment. To test the effect of cocaine alone or MA alone or in combination with exemplified morphinans (DM, HM, AM, CM or DF), each morphinan was administered 2 hr before cocaine or saline injection.
On day 1, the mice were pre-exposed to the test apparatus for 5 min. The guillotine doors were raised and the mice were allowed to move freely between the two compartments. On day 2, the time each mouse spent in each compartment was recorded for 15 min. On days 3, 5, 7, 9, 11, and 13, the mice were injected with cocaine before being confined to the white compartment, the non-preferred side, for 20 min. On days 4, 6, 8, 10, and 12, the mice were injected with saline before being confined to the black compartment, the preferred side, for 20 min. On day 14, the guillotine doors were raised. The mice were initially placed in the tunnel and the time spent by the mice in the two compartments was recorded for 15 min. The scores were calculated from the differences in the time spent in the white compartment in the testing and pre-testing phases.

CB1 receptor = CB1 receptor (Rattus norvegicus, UniProt P20272); type: biochemical
σ1 receptors = σ1 receptors (Homo sapiens, UniProt Q99720); conditions: cited from earlier work
LPS-treated mice [11] = test: LPS-induced loss of nigral TH-IR with CB1 agonist/antagonist and HM; type: in vivo; conditions: given alone
Procedure: Mortality was observed by 2 weeks after bilateral LPS intrastriatal injection (one side: 2 μg×2).

MPTP-treated mice [12] = test: Striatal dopamine and metabolites (HPLC-EC) in MPTP-treated mice; conditions: for Concentration DA in the striatum: mean ± S.E.M., 8 animals
cocaine-treated mice [13] = test: Cocaine-induced behavioural sensitization with CB1 modulation
MA-treated mice [14] = test: MA-induced loss of nigral TH-IR with CB1 agonist/antagonist and HM; conditions: given alone
Procedure: Compounds were administered 3 days before and after MA injection.

LPS-treated mice [15] = test: Nigral TH-IR in LPS-treated mice; type: in vivo; conditions: 24 mg/kg i.p.
Source text: FIGS. 8A-8B. […] Magnification=40×.
as §1

cannabinoid CB1 site = cannabinoid CB1 site (Rattus norvegicus, UniProt P20272)
cannabinoid CB1 site, sequence (P20272 whole entry): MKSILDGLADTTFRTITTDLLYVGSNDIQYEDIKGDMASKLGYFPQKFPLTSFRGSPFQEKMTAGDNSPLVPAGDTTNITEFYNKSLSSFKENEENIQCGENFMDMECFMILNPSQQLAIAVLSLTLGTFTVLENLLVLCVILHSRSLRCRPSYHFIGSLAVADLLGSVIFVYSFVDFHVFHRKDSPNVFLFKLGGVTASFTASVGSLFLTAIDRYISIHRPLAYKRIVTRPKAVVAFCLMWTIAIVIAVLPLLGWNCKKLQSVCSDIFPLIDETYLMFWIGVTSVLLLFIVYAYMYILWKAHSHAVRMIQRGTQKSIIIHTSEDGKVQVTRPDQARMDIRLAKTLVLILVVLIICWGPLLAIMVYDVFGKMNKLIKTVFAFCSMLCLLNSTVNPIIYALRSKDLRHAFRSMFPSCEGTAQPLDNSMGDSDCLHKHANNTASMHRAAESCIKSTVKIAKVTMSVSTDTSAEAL

CB1 receptor, sequence (P20272 whole entry): as above
σ1 receptors, sequence (Q99720 whole entry): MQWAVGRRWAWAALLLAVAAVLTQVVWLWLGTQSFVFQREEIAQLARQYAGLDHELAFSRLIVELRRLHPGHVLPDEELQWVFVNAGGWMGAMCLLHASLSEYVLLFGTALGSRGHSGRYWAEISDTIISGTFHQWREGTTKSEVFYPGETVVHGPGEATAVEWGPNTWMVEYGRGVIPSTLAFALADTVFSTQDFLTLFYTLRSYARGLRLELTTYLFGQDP

With Oc1ccc2c(c1)[C@@]13CCCC[C@H]1[C@@H](C2)NCC3 [HM, 3-hydroxymorphinan] the “effect on MA-induced hyperthermia (rectal temperature)” value (MA-treated mice [1]) was “most efficacious”, the “effect on MA-induced nigral loss in TH-IR” value (MA-treated mice [2]) was “more pronounced than that of carbidopa+L-dopa” and the “effect on MPTP-induced reduction of nigral TH-IR” value (MPTP-treated mice [3]) was “Attenuates MPTP-induced Reduced Tyrosine Hydroxylase-like Immunoreactivity”. For the same compound, the “conditioned place preference (CPP)” value (C57 BL/6 mice) was “almost no CPP effects”, the “effect on locomotor activity induced by low dose of cocaine” value (cocaine-treated mice [4]; cocaine 5 mg/kg i.p. x 7 days, morphinan 15 or 30 mg/kg (DF 20 mg/kg) i.p.) was “consistently attenuated locomotor activity induced by a low dose of cocaine” and the “effect on hyperactivity induced by high dose of cocaine” value (cocaine-treated mice [4]; cocaine 20 mg/kg i.p. x 7 days, morphinan 15 or 30 mg/kg i.p. 30 min before) was “not uniform”. For the same compound, the “effect on MPTP-induced reduction in locomotor activity” value (MPTP-treated mice [5]) was “significantly prevented MPTP-induced reduction in locomotor activity”, the “effect on LPS-induced increase in F4/80-like immunoreactivity (microglia)” value (LPS-treated mice [6]) was “most effective in attenuating LPS-induced increase in F4/80-like immunoreactivity” and the “effect on LPS-induced reductions in striatal DA, DOPAC and HVA” value (LPS-treated mice [7]; 24 mg/kg pretreatment) was “significantly protected”. The “Concentration DOPAC in the striatum” value (LPS-treated mice [7]; morphinan 12 (mg/kg) + LPS) was 83 ± 10 ng/100 mg wet tissue, the “Concentration HVA in the striatum” value (LPS-treated mice [7]; morphinan 12 (mg/kg) + LPS) was 86 ± 8 ng/100 mg wet tissue and the “Concentration DA in the striatum” value (LPS-treated mice [7]; morphinan 12 (mg/kg) + LPS, mean ± S.E.M., 8 animals) was 682 ± 70 ng/100 mg wet tissue. For the same compound, the “Concentration DOPAC in the striatum” value (LPS-treated mice [7]; morphinan 24 (mg/kg) + LPS) was 112 ± 11^d ng/100 mg wet tissue, the “Concentration HVA in the striatum” value (LPS-treated mice [7]; morphinan 24 (mg/kg) + LPS) was 102 ± 10^b ng/100 mg wet tissue and the “Concentration DA in the striatum” value (LPS-treated mice [7]; morphinan 24 (mg/kg) + LPS) was 916 ± 98^d ng/100 mg wet tissue. The “effect on LPS-induced loss in nigral TH-IR” value (LPS-treated mice [8]) was “most effective in attenuating LPS-induced reduction in TH-IR”, the “affinity for NMDA receptor associated PCP sites” value [9] was “very low affinities” and the “CPP response of the compound itself” value (cocaine-treated mice [10]; AM 251 0.3, HM 20, ACEA 2 mg/kg, no cocaine) was “Neither saline-, AM 251 (0.3 mg/kg)-treated nor HM (20 mg/kg)-treated animals showed any CPP response”. The “effect on cocaine-induced CPP” value (cocaine-treated mice [10]; cocaine 10 mg/kg) was “significantly reduced”, the “effect on CP 55940-induced stimulation in GTP γS binding” value (CB1 receptor) was “decreased” and the “functional property at CB1 receptor” value (CB1 receptor) was “partial agonist of CB1 receptor, as well as a CB1 antagonist”. For the same compound, the “inhibition of GTP γS binding” value (CB1 receptor; 100 nM) was “about 60%”, the “affinity for σ1 receptors” value (σ1 receptors) was “high affinity ligands” and the “effect on LPS-induced reduction in nigral TH-IR” value (LPS-treated mice [11]) was “Attenuates LPS-Induced Reduced Tyrosine Hydroxylase-like Immunoreactivity”. The “effect on MPTP-induced reductions in striatal DA, DOPAC and HVA” value (MPTP-treated mice [12]; 24 mg/kg pretreatment) was “significantly protected”, the “Concentration DOPAC in the striatum” value (MPTP-treated mice [12]; morphinan 12 (mg/kg) + MPTP) was 68 ± 7 ng/100 mg wet tissue and the “Concentration HVA in the striatum” value (MPTP-treated mice [12]; morphinan 12 (mg/kg) + MPTP) was 84 ± 8 ng/100 mg wet tissue. The “Concentration DA in the striatum” value (MPTP-treated mice [12]; morphinan 12 (mg/kg) + MPTP) was 582 ± 74 ng/100 mg wet tissue, the “Concentration DOPAC in the striatum” value (MPTP-treated mice [12]; morphinan 24 (mg/kg) + MPTP) was 98 ± 9^c ng/100 mg wet tissue and the “Concentration HVA in the striatum” value (MPTP-treated mice [12]; morphinan 24 (mg/kg) + MPTP) was 104 ± 10^c ng/100 mg wet tissue. For the same compound, the “Concentration DA in the striatum” value (MPTP-treated mice [12]; morphinan 24 (mg/kg) + MPTP) was 896 ± 79^c ng/100 mg wet tissue, the “behavioural effects of the compound itself” value (cocaine-treated mice [13]; AM 251 0.3, ACEA 2, HM 20 mg/kg, no cocaine) was “Neither saline-, AM 251 (0.3 mg/kg)-, ACEA (2 mg/kg)-treated nor HM (20 mg/kg)-treated animals showed any specific behavioural effects” and the “effect on cocaine-induced behavioural sensitization” value (cocaine-treated mice [13]; cocaine 10 mg/kg/day i.p. x 7, challenge one month later) was “significantly reduced”. The “effect on MA-induced reduction in nigral TH-IR” value (MA-treated mice [14]) was “Prevents Methamphetamine (MA)-induced Reduction in Tyrosine Hydroxylase-like Immunoreactivity”, the “effect on LPS-induced reduction in nigral TH-positive cells” value (LPS-treated mice [15]) was “significantly attenuated the reduction in TH-positive cells” and the Ki (cannabinoid CB1 site) was 11.5 nM.
